Results from US20180273531A1, “PYRIMIDINE COMPOUND AND MEDICAL USE THEREOF” (Japan Tobacco Inc., priority 2004, published 2018).

Each compound was assayed on Renal cancer cell line ACHN cell (assay: Growth inhibitory effect against cancer cell lines (3H-thymidine uptake), ACHN). Conditions: Homo sapiens, ACHN.
Assay type: cell-based
Method: (§1) Renal cancer cell line ACHN cell or colorectal cancer cell line HT-29 cells were cultured in a 96 well plate at 1.0×10^4 cells/90 μL/well for 24 hrs, then a test substance dissolved in DMSO (dimethyl sulfoxide) was added. After 18 hrs, ^3H-thymidine (0.25 μCi/well) was added and the cells were cultured for 6 hrs. Using a cell harvester, the cells were recovered on a UniFilter-96 GF/B glass filter and the ^3H radioactivity uptaken by the cells was measured by TopCount (Packard). As a control, DMSO was used and the activity of the test substance was expressed in the concentration (IC50) necessary for inhibiting ^3H radioactivity uptaken by the cell to 50% of that of the control group. The measurements were made in triplicate.

Q: With `Cn1c(=O)cc(Nc2ccc3sccc3c2F)c2c(=O)n(C3CC3)c(=O)n(-c3ccccc3)c21` [Example 1-343] as the compound, how does the IC50 read?
A: Its IC50 is 100 to 1000 nM.

Q: For `Cc1c(=O)n(C)c(Nc2ccc(Br)cc2)c2c(=O)n(C3CC3)c(=O)n(-c3ccccc3)c12` [Example 3-1], which IC50 is on record?
A: The IC50 was 100 to 1000 nM.

Q: With `Cc1c(=O)n(C)c(Nc2ccc(Br)cc2F)c2c(=O)n(C3CC3)c(=O)n(-c3ccc([N+](=O)[O-])cc3)c12` [Example 4-5] as the compound, how does the IC50 read?
A: Its IC50 is 100 to 1000 nM.

Q: How did the IC50 turn out when `CCn1c(=O)c2c(Nc3ccc(I)cc3F)n(C)c(=O)c(C)c2n(-c2cccc(NS(=O)(=O)CC)c2)c1=O` [Example 4-19] was run?
A: The IC50 was 10 to 100 nM.

Q: With `CCn1c(=O)c2c(Nc3ccc(I)cc3F)n(C)c(=O)c(C)c2n(-c2cccc(NS(C)(=O)=O)c2)c1=O` [Example 4-20] as the compound, how does the IC50 read?
A: The IC50 was 10 to 100 nM.

Q: `CCc1ccc(Nc2c3c(=O)n(C4CC4)c(=O)n(-c4cccc(NS(C)(=O)=O)c4)c3c(C)c(=O)n2C)c(F)c1` [Example 4-25] was tested. Which IC50 did it give?
A: Its IC50 is 10 to 100 nM.

Q: Which IC50 does the source give for `CCc1ccc(Nc2c3c(=O)n(C4CC4)c(=O)n(-c4cccc(NS(=O)(=O)CC)c4)c3c(C)c(=O)n2C)c(F)c1` [Example 4-26] here?
A: Its IC50 is 10 to 100 nM.

Q: With `Cc1c(=O)n(C)c(Nc2ccc(I)cc2F)c2c(=O)n(C3CC3)c(=O)n(-c3cccc(NS(=O)(=O)N(C)C)c3)c12` [Example 4-33] as the compound, how does the IC50 read?
A: Its IC50 is under 10 nM.

Q: Which IC50 does the source give for `Cc1c(=O)n(C)c(Nc2ccc(I)cc2F)c2c(=O)n(C3CC3)c(=O)n(-c3cccc(NS(=O)(=O)N4CCOCC4)c3)c12` [Example 4-34] here?
A: Its IC50 is under 10 nM.

Q: How did the IC50 turn out when `CC(=O)Nc1cc(Cl)cc(-n2c(=O)n(C3CC3)c(=O)c3c(Nc4ccc(I)cc4F)n(C)c(=O)c(C)c32)c1` [Example 4-37] was run?
A: The IC50 was 100 to 1000 nM.

Q: Which IC50 does the source give for `C#Cc1ccc(Nc2c3c(=O)n(CC)c(=O)n(-c4cccc(NS(=O)(=O)CC)c4)c3c(C)c(=O)n2C)c(F)c1` [Example 4-40] here?
A: Its IC50 is 10 to 100 nM.

Q: For `CCc1ccc(Nc2c3c(=O)n(CC)c(=O)n(-c4cccc(NS(=O)(=O)CC)c4)c3c(C)c(=O)n2C)c(F)c1` [Example 4-41], which IC50 is on record?
A: The IC50 was 10 to 100 nM.

Q: For `C#Cc1ccc(Nc2c3c(=O)n(CC)c(=O)n(-c4cccc(NS(C)(=O)=O)c4)c3c(C)c(=O)n2C)c(F)c1` [Example 4-42], which IC50 is on record?
A: The IC50 was 10 to 100 nM.

Q: With `CCc1ccc(Nc2c3c(=O)n(CC)c(=O)n(-c4cccc(NS(C)(=O)=O)c4)c3c(C)c(=O)n2C)c(F)c1` [Example 4-44] as the compound, how does the IC50 read?
A: Its IC50 is 100 to 1000 nM.

Q: For `C#Cc1ccc(Nc2c3c(=O)n(C4CC4)c(=O)n(-c4cccc(NC(C)=O)c4)c3c(C)c(=O)n2CC)c(F)c1` [Example 4-46], which IC50 is on record?
A: The IC50 was 100 to 1000 nM.

Q: With `CC#Cc1ccc(Nc2c3c(=O)n(C4CC4)c(=O)n(-c4cccc(NC(C)=O)c4)c3c(C)c(=O)n2C)c(F)c1` [Example 4-52] as the compound, how does the IC50 read?
A: The IC50 was 100 to 1000 nM.

Q: `Cc1c(=O)n(C)c(Nc2ccc(I)cc2F)c2c(=O)n(C3CC3)c(=O)n(-c3cccc(NC(=O)c4cccn4C)c3)c12` [Example 4-87] was tested. Which IC50 did it give?
A: The IC50 was 100 to 1000 nM.

Q: For `Cc1c(=O)n(C)c(Nc2ccc(I)cc2F)c2c(=O)n(C3CC3)c(=O)n(-c3ccc(CC(=O)O)cc3)c12` [Example 4-94], which IC50 is on record?
A: Its IC50 is 100 to 1000 nM.

Q: How did the IC50 turn out when `Cc1c(=O)n(C)c(Nc2ccc(I)cc2F)c2c(=O)n(C3CC3)c(=O)n(-c3cccc(NC(=O)NCCO)c3)c12` [Example 4-95] was run?
A: The IC50 was 100 to 1000 nM.

Q: Which IC50 does the source give for `Cc1c(=O)n(C)c(Nc2ccc(I)cc2F)c2c(=O)n(C3CC3)c(=O)n(-c3cccc(NS(=O)(=O)N(CCO)C(=O)NCCO)c3)c12` [Example 4-96] here?
A: Its IC50 is 100 to 1000 nM.

Q: With `Cc1c(=O)n(C)c(Nc2ccc(I)cc2F)c2c(=O)n(C3CC3)c(=O)n(-c3ccc4c(c3)ncn4C)c12` [Example 4-111] as the compound, how does the IC50 read?
A: Its IC50 is 100 to 1000 nM.

Same assay, conditions: inhibition of 3H-thymidine uptake; test substance 18 hrs, then 3H-thymidine 6 hrs; triplicate

Q: How did the IC50 turn out when `Cc1c(=O)n(C)c(Nc2ccc(I)cc2F)c2c(=O)n(C3CC3)c(=O)n(-c3ccc4c(c3)ncn4C)c12` [Example 4-112] was run?
A: Its IC50 is 100 to 1000 nM.

Each compound was assayed on colorectal cancer cell line HT-29 cells (assay: Growth inhibitory effect against cancer cell lines (3H-thymidine uptake), HT-29). Conditions: Homo sapiens, HT-29, inhibition of 3H-thymidine uptake; test substance 18 hrs, then 3H-thymidine 6 hrs; triplicate.
Assay type: cell-based
Method: as §1

Q: With `Cn1c(=O)cc(Nc2ccc3sccc3c2F)c2c(=O)n(C3CC3)c(=O)n(-c3ccccc3)c21` [Example 1-343] as the compound, how does the IC50 read?
A: Its IC50 is 10 to 100 nM.

Q: `Cc1c(=O)n(C)c(Nc2ccc(Br)cc2)c2c(=O)n(C3CC3)c(=O)n(-c3ccccc3)c12` [Example 3-1] was tested. Which IC50 did it give?
A: Its IC50 is 100 to 1000 nM.

Q: With `Cc1c(=O)n(C)c(Nc2ccc(Br)cc2F)c2c(=O)n(C3CC3)c(=O)n(-c3ccc([N+](=O)[O-])cc3)c12` [Example 4-5] as the compound, how does the IC50 read?
A: The IC50 was 10 to 100 nM.

Q: How did the IC50 turn out when `CCn1c(=O)c2c(Nc3ccc(I)cc3F)n(C)c(=O)c(C)c2n(-c2cccc(NS(=O)(=O)CC)c2)c1=O` [Example 4-19] was run?
A: Its IC50 is under 10 nM.

Q: How did the IC50 turn out when `CCn1c(=O)c2c(Nc3ccc(I)cc3F)n(C)c(=O)c(C)c2n(-c2cccc(NS(C)(=O)=O)c2)c1=O` [Example 4-20] was run?
A: Its IC50 is under 10 nM.

Q: Which IC50 does the source give for `CCc1ccc(Nc2c3c(=O)n(C4CC4)c(=O)n(-c4cccc(NS(C)(=O)=O)c4)c3c(C)c(=O)n2C)c(F)c1` [Example 4-25] here?
A: The IC50 was under 10 nM.

Q: Which IC50 does the source give for `CCc1ccc(Nc2c3c(=O)n(C4CC4)c(=O)n(-c4cccc(NS(=O)(=O)CC)c4)c3c(C)c(=O)n2C)c(F)c1` [Example 4-26] here?
A: The IC50 was under 10 nM.

Q: `Cc1c(=O)n(C)c(Nc2ccc(I)cc2F)c2c(=O)n(C3CC3)c(=O)n(-c3cccc(NS(=O)(=O)N(C)C)c3)c12` [Example 4-33] was tested. Which IC50 did it give?
A: Its IC50 is under 10 nM.

Q: Which IC50 does the source give for `Cc1c(=O)n(C)c(Nc2ccc(I)cc2F)c2c(=O)n(C3CC3)c(=O)n(-c3cccc(NS(=O)(=O)N4CCOCC4)c3)c12` [Example 4-34] here?
A: Its IC50 is under 10 nM.

Q: Which IC50 does the source give for `CC(=O)Nc1cc(Cl)cc(-n2c(=O)n(C3CC3)c(=O)c3c(Nc4ccc(I)cc4F)n(C)c(=O)c(C)c32)c1` [Example 4-37] here?
A: The IC50 was 10 to 100 nM.

Q: How did the IC50 turn out when `C#Cc1ccc(Nc2c3c(=O)n(CC)c(=O)n(-c4cccc(NS(=O)(=O)CC)c4)c3c(C)c(=O)n2C)c(F)c1` [Example 4-40] was run?
A: Its IC50 is under 10 nM.

Q: For `CCc1ccc(Nc2c3c(=O)n(CC)c(=O)n(-c4cccc(NS(=O)(=O)CC)c4)c3c(C)c(=O)n2C)c(F)c1` [Example 4-41], which IC50 is on record?
A: The IC50 was 10 to 100 nM.

Q: For `C#Cc1ccc(Nc2c3c(=O)n(CC)c(=O)n(-c4cccc(NS(C)(=O)=O)c4)c3c(C)c(=O)n2C)c(F)c1` [Example 4-42], which IC50 is on record?
A: Its IC50 is under 10 nM.

Q: With `CCc1ccc(Nc2c3c(=O)n(CC)c(=O)n(-c4cccc(NS(C)(=O)=O)c4)c3c(C)c(=O)n2C)c(F)c1` [Example 4-44] as the compound, how does the IC50 read?
A: The IC50 was 10 to 100 nM.

Q: How did the IC50 turn out when `C#Cc1ccc(Nc2c3c(=O)n(C4CC4)c(=O)n(-c4cccc(NC(C)=O)c4)c3c(C)c(=O)n2CC)c(F)c1` [Example 4-46] was run?
A: The IC50 was 10 to 100 nM.

Q: `CC#Cc1ccc(Nc2c3c(=O)n(C4CC4)c(=O)n(-c4cccc(NC(C)=O)c4)c3c(C)c(=O)n2C)c(F)c1` [Example 4-52] was tested. Which IC50 did it give?
A: Its IC50 is 100 to 1000 nM.

Q: Which IC50 does the source give for `Cc1c(=O)n(C)c(Nc2ccc(I)cc2F)c2c(=O)n(C3CC3)c(=O)n(-c3cccc(NC(=O)c4cccn4C)c3)c12` [Example 4-87] here?
A: Its IC50 is 10 to 100 nM.

Q: `Cc1c(=O)n(C)c(Nc2ccc(I)cc2F)c2c(=O)n(C3CC3)c(=O)n(-c3ccc(CC(=O)O)cc3)c12` [Example 4-94] was tested. Which IC50 did it give?
A: The IC50 was 10 to 100 nM.

Q: `Cc1c(=O)n(C)c(Nc2ccc(I)cc2F)c2c(=O)n(C3CC3)c(=O)n(-c3cccc(NC(=O)NCCO)c3)c12` [Example 4-95] was tested. Which IC50 did it give?
A: Its IC50 is 10 to 100 nM.

Q: For `Cc1c(=O)n(C)c(Nc2ccc(I)cc2F)c2c(=O)n(C3CC3)c(=O)n(-c3cccc(NS(=O)(=O)N(CCO)C(=O)NCCO)c3)c12` [Example 4-96], which IC50 is on record?
A: Its IC50 is 10 to 100 nM.

Q: Which IC50 does the source give for `Cc1c(=O)n(C)c(Nc2ccc(I)cc2F)c2c(=O)n(C3CC3)c(=O)n(-c3ccc4c(c3)ncn4C)c12` [Example 4-111] here?
A: The IC50 was 10 to 100 nM.

Same assay, conditions: inhibition of 3H-thymidine uptake; test substance 18 hrs, then 3H-thymidine 6 hrs; triplicate

Q: For `Cc1c(=O)n(C)c(Nc2ccc(I)cc2F)c2c(=O)n(C3CC3)c(=O)n(-c3ccc4c(c3)ncn4C)c12` [Example 4-112], which IC50 is on record?
A: The IC50 was under 10 nM.

What follows are compounds tested on p15 protein (assay: Evaluation of p15 induction activity (Western blotting)). Conditions: test substance 0.1 μM, 24 hrs, ACHN cells or HT-29 cells, compared to DMSO, n=2.
Assay type: cell-based
Method: ACHN cells or HT-29 cells were cultured in a 6 well plate at 2.5×10^5 cells/1.8 mL/well for 24 hrs, then a test substance (0.1 μM) dissolved in DMSO was added. After 24 hrs, cells were detached using trypsin-EDTA (ethylene diamine tetraacetic acid) and solubilized with NuPAGE LDS sample buffer (Invitrogen). Using an RC DC protein assay kit (BIO-RAD), the protein concentration of the sample was quantitated, and a sample in an amount corresponding to 10 μg of BSA (bovine serum albumin) was analyzed by Western blotting using an anti-p15 antibody. The density of the band stained with the anti-p15 antibody was measured by a densitometer to quantify the amount of p15 protein. As a control, DMSO was used and the test was performed with n=2 and the average protein amount was determined.

Q: How did the fold induction at 0.1 µM turn out when `Cc1c(=O)n(C)c(Nc2ccc(I)cc2F)c2c(=O)n(C3CC3)c(=O)n(-c3ccc4c(c3)ncn4C)c12` [Example 4-111] was run?
A: Its fold induction at 0.1 µM is at least 1.5.

Q: For `Cc1c(=O)n(C)c(Nc2ccc(I)cc2F)c2c(=O)n(C3CC3)c(=O)n(-c3ccc4c(c3)ncn4C)c12` [Example 4-112], which “Induction of p15 protein” value is on record?
A: Its value is “+ (As compared to DMSO, not less than 1.5-fold induction of p15 protein)”.
